Patent US20140023611A1 (priority 2010, published 2014)

Legend:
rat NaP2b (SLC34A2) = molecular target: T1, rat NaP2b (SLC34A2) (Rattus norvegicus, UniProt Q9JJ09); assay: Inhibition of NaP2b-mediated Pi (33P) uptake in transfected HEK293 cells, rat NaP2b; assay type: cell-based; conditions: 33P Pi uptake, 0.1 mM phosphate, value given as pIC50 range
T1 construct: host or cells: HEK293
T1 sequence (Q9JJ09 1-695): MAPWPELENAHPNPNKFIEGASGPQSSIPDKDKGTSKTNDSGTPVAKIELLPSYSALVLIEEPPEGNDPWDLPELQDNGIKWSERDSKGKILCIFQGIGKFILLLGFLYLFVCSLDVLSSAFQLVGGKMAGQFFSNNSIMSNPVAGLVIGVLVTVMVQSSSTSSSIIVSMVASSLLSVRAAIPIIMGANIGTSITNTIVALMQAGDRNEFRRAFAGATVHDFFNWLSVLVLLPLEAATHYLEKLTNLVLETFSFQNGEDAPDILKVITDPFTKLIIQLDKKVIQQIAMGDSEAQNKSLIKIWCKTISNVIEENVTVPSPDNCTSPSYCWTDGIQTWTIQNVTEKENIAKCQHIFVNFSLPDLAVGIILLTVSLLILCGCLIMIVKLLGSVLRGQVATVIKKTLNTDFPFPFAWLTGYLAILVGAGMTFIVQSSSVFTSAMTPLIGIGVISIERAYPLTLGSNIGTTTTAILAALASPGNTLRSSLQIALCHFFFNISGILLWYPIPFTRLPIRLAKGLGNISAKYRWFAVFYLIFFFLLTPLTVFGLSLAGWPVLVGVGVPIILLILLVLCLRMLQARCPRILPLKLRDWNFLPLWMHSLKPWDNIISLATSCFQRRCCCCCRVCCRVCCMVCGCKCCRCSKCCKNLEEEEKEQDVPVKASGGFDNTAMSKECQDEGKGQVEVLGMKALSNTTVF
How it was run: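 The cells transiently expressed NaP2b after Lipofectamine transfection. Each compound was run in duplicate over twelve concentrations, 0.1 nM–30 uM.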

[1] = Stability of compounds in simulated gastric fluid (SGF); assay type: in vitro ADME; conditions: simulated gastric fluid (3 mg/mL pepsin), incubation time 6 hr, relative to t=0
How it was run: (§1)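 Compounds at […] were incubated 3 or 6 hr in USP simulated gastric fluid with 3 mg/mL pepsin or simulated intestinal fluid with 3 mg/mL pancreatin. Remaining compound was quantified by HPLC-UV or HPLC-MS peak area % and reported as percent of the t=0 level in the same medium.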

[2] = Stability of compounds in simulated intestinal fluid (SIF); assay type: in vitro ADME; conditions: simulated intestinal fluid (3 mg/mL pancreatin), incubation time 6 hr, relative to t=0
How it was run: as §1

[3] = Determination of compound Cmax and AUC after oral gavage (plasma LC-MS/MS); assay type: in vivo, Sprague-Dawley rats; conditions: Sprague-Dawley, rat, plasma, po, Structure (I) examples
How it was run: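 Plasma exposure measured by LC-MS/MS after acetonitrile precipitation with internal standard, quantified against a standard curve made in plasma. Compound given orally by gavage to Sprague-Dawley rats at nominal 2.5 or 10 mg/kg, with K2EDTA plasma sampled at 0.5, 1, 2 and 4 h.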

[4] = Fecal recovery of orally administered compounds; assay type: in vivo, Sprague-Dawley rats; conditions: Structure (I) examples, Table 16; rat, oral gavage, feces collected until 48 hr after dosing
Source text: (§2) The animals were kept in metabolic cages and feces were collected from the time of dosing until 48 hr after dosing. Upon collection, feces were dried by lyophilization and ground to a visually homogenous powder. Duplicate samples of ground feces from each individual animal were weighed out and extracted using organic solvent. […] Extraction conditions were not optimized for individual compounds, and thus may represent a minimal level of recovery.
as §2, with “collection, feces was dried by” for “collection, feces were dried by”
as §2, with “collection, feces was dried by” for “collection, feces were dried by”
The animals were kept in metabolic cages and feces were collected from the time of dosing until 48 hr after dosing. Upon collection, feces was dried by lyophilization and ground to a visually homogenous powder. Duplicate samples of ground feces from each individual animal were weighed out and extracted using organic solvent.

human NaP2b (SLC34A2) = molecular target: T2, human NaP2b (SLC34A2) (Homo sapiens, UniProt O95436); assay: Inhibition of NaP2b-mediated Pi (33P) uptake in transfected HEK293 cells, human NaP2b; assay type: cell-based; conditions: read-out: pIC50 range for human NaP2b (converted)
T2 construct: host or cells: HEK293
T2 sequence (O95436 1-690): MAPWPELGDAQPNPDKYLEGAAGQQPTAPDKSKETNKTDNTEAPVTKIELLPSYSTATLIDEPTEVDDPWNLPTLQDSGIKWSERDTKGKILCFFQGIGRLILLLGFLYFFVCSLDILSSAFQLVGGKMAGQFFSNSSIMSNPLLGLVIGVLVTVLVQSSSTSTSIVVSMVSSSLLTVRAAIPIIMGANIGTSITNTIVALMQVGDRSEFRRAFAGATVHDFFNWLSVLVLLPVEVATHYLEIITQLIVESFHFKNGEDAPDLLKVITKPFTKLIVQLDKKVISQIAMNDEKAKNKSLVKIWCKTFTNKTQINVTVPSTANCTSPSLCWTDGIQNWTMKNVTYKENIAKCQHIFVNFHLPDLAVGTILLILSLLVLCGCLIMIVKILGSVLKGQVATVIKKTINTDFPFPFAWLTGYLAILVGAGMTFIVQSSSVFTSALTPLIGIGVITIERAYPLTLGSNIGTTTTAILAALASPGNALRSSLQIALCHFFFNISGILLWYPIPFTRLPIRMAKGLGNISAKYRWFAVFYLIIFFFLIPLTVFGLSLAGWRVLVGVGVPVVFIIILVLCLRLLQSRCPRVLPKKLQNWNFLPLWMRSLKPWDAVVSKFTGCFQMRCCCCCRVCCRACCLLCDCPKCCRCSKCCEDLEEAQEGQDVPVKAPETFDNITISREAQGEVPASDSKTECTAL
How it was run: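 Uptake of 33P-phosphate (100 uM KH2PO4 carrier, sodium vs choline buffer, pH 7.4) measured after 3-30 min at room temperature, with test compound at twelve concentrations from 0.1 nM to 30 uM in duplicate. Cells were HEK293 transfected with mutated human NaP2b (Thr insertion after 37, N39D) and treated with a PiT-silencing agent. pIC50 values from scintillation counts.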

[5] = Table 15, actual oral dose 3-15 mg/kg, plasma 0.5-4 h
[6] = Table 15, actual oral dose 15-40 mg/kg, plasma 0.5-4 h

Compound	IC50 (rat NaP2b (SLC34A2))	% remaining, SGF [1]	% remaining, SIF [2]	AUC [3, 5]	Cmax [3, 5]	% recovered in feces [4]	IC50 (human NaP2b (SLC34A2))	AUC [3, 6]	Cmax ([3]; Table 15, plasma 0.5-4 h)
CC(C)(SCc1cccc(C(=O)Nc2ccc(N3CCCCC3)cc2-c2cc(C(=O)NCc3cccc(C(F)(F)F)c3)ccn2)c1)C(=O)O [Example 8.6]	1 to 7.94 µM	>80%	>80%	> 50 ng·h/mL	< 50 ng/mL	20-80%	–	–	–
O=C(O)CCOCCOCCOCCNC(=O)Cc1cccc(SCc2cccc(C(=O)Nc3ccc(N4CCCCC4)cc3-c3cc(C(=O)NCc4cccc(C(F)(F)F)c4)ccn3)c2)c1 [Example 137]	1 to 7.94 µM	>80%	>80%	< 10 ng·h/mL	< 10 ng/mL	<20%	–	–	–
CCN(CC)c1ccc(NC(=O)c2cccc(CCCOCCOCCOCCOCCC(=O)N3CCN(C(=O)c4cccc(CCCOCCOCCOCCOCCOCCOCCOCCOCCOC)c4)CC3)c2)c(-c2cc(C(=O)NCc3cccc(C(F)(F)F)c3)ccn2)c1 [Example 262, 2-(2-(3-(16-(4-(3-(2,5,8,11,14,17,20,23,26-nonaoxanonacosan-29-yl)benzoyl)piperazin-1-yl)-16-oxo-4,7,10,13-tetraoxahexadecyl)benzamido)-5-(diethylamino)phenyl)-N-(3-(trifluoromethyl)benzyl)isonicotinamide]	1 to 7.94 µM	–	–	–	–	20-80%	1 to 7.94 µM	< 50 ng·h/mL	< 10 ng/mL
O=C(O)CCOCCOCCOCCNC(=O)c1cccc(SCc2cccc(C(=O)Nc3ccc(Cl)cc3-c3cc(C(=O)NCc4cccc(C(F)(F)F)c4)ccn3)c2)c1 [Example 264, 1-(3-(3-(4-chloro-2-(4-(3-(trifluoromethyl)benzylcarbamoyl)pyridin-2-yl)phenylcarbamoyl)benzylthio)phenyl)-1-oxo-5,8,11-trioxa-2-azatetradecan-14-oic acid]	10 to 31.6 µM	40-60%	>80%	< 10 ng·h/mL	< 10 ng/mL	<20%	–	–	–
CCN(CC)c1ccc(NC(=O)c2cccc(CCCOCCOCCOCCOCCNC(=O)c3cccc(CCCOCCOCCOCCOCCOCCOCCOCCOCCOC)c3)c2)c(-c2cc(C(=O)NCc3cccc(C(F)(F)F)c3)ccn2)c1 [Example 271, 2-(2-(3-(1-(3-(2,5,8,11,14,17,20,23,26-nonaoxanonacosan-29-yl)phenyl)-1-oxo-5,8,11,14-tetraoxa-2-azaheptadecan-17-yl)benzamido)-5-(diethylamino)phenyl)-N-(3-(trifluoromethyl)benzyl)isonicotinamide]	1 to 7.94 µM	–	–	–	–	20-80%	–	> 50 ng·h/mL	< 30 ng/mL
CCN(CC)c1ccc(NC(=O)c2cccc(CCCOCCOCCOCCOCCNS(=O)(=O)c3ccc(CCC(=O)O)cc3)c2)c(-c2cc(C(=O)NCc3cccc(C(F)(F)F)c3)ccn2)c1 [Example 294, 3-(4-(N-(15-(3-(4-(diethylamino)-2-(4-(3-(trifluoromethyl)benzylcarbamoyl)pyridin-2-yl)phenylcarbamoyl)phenyl)-3,6,9,12-tetraoxapentadecyl)sulfamoyl)phenyl)propanoic acid]	< 1 µM	–	–	> 50 ng·h/mL	< 10 ng/mL	>80%	< 1 µM	–	–
